Assay results as given in patent US9487515B2, “Compounds modulating c-fms and/or c-kit activity and uses therefor” (Plexxikon Inc., priority 2006, dated 2016).

Molecular target: c-kit (Homo sapiens, UniProt P10721)
Experiment: c-kit assays of Examples 40 and 41 (AlphaScreen kinase assays at 10 and 100 μM ATP, 33P-ATP filter assay, M-07e SCF-stimulated proliferation and phosphorylation)

c-kit, sequence (P10721 with tags, fused parts or gaps): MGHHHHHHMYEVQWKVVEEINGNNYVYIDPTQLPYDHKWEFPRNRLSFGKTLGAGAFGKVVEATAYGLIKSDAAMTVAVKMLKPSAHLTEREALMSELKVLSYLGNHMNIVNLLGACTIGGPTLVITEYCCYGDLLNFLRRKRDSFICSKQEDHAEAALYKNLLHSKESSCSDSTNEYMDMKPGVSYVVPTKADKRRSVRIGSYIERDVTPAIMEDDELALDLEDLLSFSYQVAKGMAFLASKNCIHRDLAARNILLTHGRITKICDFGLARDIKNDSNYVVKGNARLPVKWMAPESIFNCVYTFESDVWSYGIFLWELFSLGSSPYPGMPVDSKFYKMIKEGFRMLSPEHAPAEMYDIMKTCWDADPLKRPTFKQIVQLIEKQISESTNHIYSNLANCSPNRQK

| Compound | IC50 |
| --- | --- |
| Cc1nc(-c2ccc(C(F)(F)F)cc2)sc1Cn1nc(C)c(Cc2c[nH]c3ncccc23)c1C [P-0143, 3-{3,5-Dimethyl-1-[4-methyl-2-(4-trifluoromethyl-phenyl)-thiazol-5-ylmethyl]-1H-pyrazol-4-ylmethyl}-1H-pyrrolo[2,3-b]pyridine] | < 1000 nM |
| Clc1cccc(CNc2ncc(Cc3c[nH]c4ncccc34)cn2)c1Cl [P-0313, (2,3-Dichloro-benzyl)-[5-(1H-pyrrolo[2,3-b]pyridin-3-ylmethyl)-pyrimidin-2-yl]-amine] | < 1000 nM |
| FC(F)Oc1ccccc1CNc1ncc(Cc2c[nH]c3ncc(Cl)cc23)cn1 [P-0390, [5-(5-Chloro-1H-pyrrolo[2,3-b]pyridin-3-ylmethyl)-pyrimidin-2-yl]-(2-difluoromethoxy-benzyl)-amine] | < 1000 nM |
| O=C(Nc1ccc(Cc2c[nH]c3ncccc23)cn1)c1cccc(F)c1 [P-0121, 3-Fluoro-N-[5-(1H-pyrrolo[2,3-b]pyridin-3-ylmethyl)-pyridin-2-yl]-benzamide] | < 1000 nM |
| CNc1ncccc1CNc1ccc(Cc2c[nH]c3ncccc23)cn1 [P-0385, Methyl-(3-{[5-(1H-pyrrolo[2,3-b]pyridin-3-ylmethyl)-pyridin-2-ylamino]-methyl}-pyridin-2-yl)-amine] | < 1000 nM |
| Cc1cc(CNc2ccc(Cc3c[nH]c4ncccc34)cn2)nn1C [P-0131, (1,5-Dimethyl-1H-pyrazol-3-ylmethyl)-[5-(1H-pyrrolo[2,3-b]pyridin-3-ylmethyl)-pyridin-2-yl]-amine] | < 1000 nM |
| Cc1nc(NCc2ccc(C(F)(F)F)cc2)ccc1Cc1c[nH]c2ncccc12 [P-0013, [6-Methyl-5-(1H-pyrrolo[2,3-b]pyridin-3-ylmethyl)-pyridin-2-yl]-(4-trifluoromethyl-benzyl)-amine] | < 1000 nM |
| N#Cc1cnc2[nH]cc(Cc3ccc(NCc4c(F)cccc4F)nc3)c2c1 [P-0277, 3-[6-(2,6-Difluoro-benzylamino)-pyridin-3-ylmethyl]-1H-pyrrolo[2,3-b]pyridine-5-carbonitrile] | < 1000 nM |
| COc1ncccc1CNc1ccc(Cc2c[nH]c3ncc(C#N)cc23)cn1 [P-0287, 3-{6-[(2-Methoxy-pyridin-3-ylmethyl)-amino]-pyridin-3-ylmethyl}-1H-pyrrolo[2,3-b]pyridine-5-carbonitrile] | < 1000 nM |
| Cc1cc(C(=O)Nc2ccc(Cc3c[nH]c4ncccc34)cn2)n(C)n1 [P-0102, 2,5-Dimethyl-2H-pyrazole-3-carboxylic acid [5-(1H-pyrrolo[2,3-b]pyridin-3-ylmethyl)-pyridin-2-yl]-amide] | < 1000 nM |
| Cc1cnc2[nH]cc(Cc3ccc(NCc4ccccc4C(F)(F)F)nc3)c2c1 [P-0276, [5-(5-Methyl-1H-pyrrolo[2,3-b]pyridin-3-ylmethyl)-pyridin-2-yl]-(2-trifluoromethyl-benzyl)-amine] | < 1000 nM |
| Fc1ccc(C(F)(F)F)cc1CNc1ccc(Cc2c[nH]c3ncccc23)cn1 [P-0350, (2-Fluoro-5-trifluoromethyl-benzyl)-[5-(1H-pyrrolo[2,3-b]pyridin-3-ylmethyl)-pyridin-2-yl]-amine] | < 1000 nM |
| Cc1cc(C(=O)Nc2ccc(Cc3c[nH]c4ncccc34)cn2)ccc1F [P-0109, 4-Fluoro-3-methyl-N-[5-(1H-pyrrolo[2,3-b]pyridin-3-ylmethyl)-pyridin-2-yl]-benzamide] | < 1000 nM |
| Cc1nn(C(=O)NCc2ccc(Cl)cc2)c(C)c1Cc1c[nH]c2ncc(Cl)cc12 [P-0159, 4-(5-Chloro-1H-pyrrolo[2,3-b]pyridin-3-ylmethyl)-3,5-dimethyl-pyrazole-1-carboxylic acid 4-chloro-benzylamide] | < 1000 nM |
| Clc1ccc(CNc2ccc(Cc3c[nH]c4ncccc34)c(Cl)n2)cc1 [P-0161, (4-Chloro-benzyl)-[6-chloro-5-(1H-pyrrolo[2,3-b]pyridin-3-ylmethyl)-pyridin-2-yl]-amine] | < 1000 nM |
| Fc1cc(Cl)ccc1CNc1ccc(Cc2c[nH]c3ncccc23)cn1 [P-0345, (4-Chloro-2-fluoro-benzyl)-[5-(1H-pyrrolo[2,3-b]pyridin-3-ylmethyl)-pyridin-2-yl]-amine] | < 1000 nM |
| COc1ccccc1CNC(=O)n1nc(C)c(Cc2c[nH]c3ncccc23)c1C [P-0145, 3,5-Dimethyl-4-(1H-pyrrolo[2,3-b]pyridin-3-ylmethyl)-pyrazole-1-carboxylic acid 2-methoxy-benzylamide] | < 1000 nM |
| Fc1ccc(CNc2ccc(Cc3c[nH]c4ncccc34)cn2)c(F)c1 [P-0212, (2,4-Difluoro-benzyl)-[5-(1H-pyrrolo[2,3-b]pyridin-3-ylmethyl)-pyridin-2-yl]-amine] | < 1000 nM |
| c1ccc(OCCN2CCOCC2)c(CNc2ccc(Cc3c[nH]c4ncccc34)cn2)c1 [P-0361, [2-(2-Morpholin-4-yl-ethoxy)-benzyl]-[5-(1H-pyrrolo[2,3-b]pyridin-3-ylmethyl)-pyridin-2-yl]-amine] | < 1000 nM |
| CCn1cc(CNc2nc(Cl)c(Cc3c[nH]c4ncc(Cl)cc34)s2)cn1 [P-0239, [4-Chloro-5-(5-chloro-1H-pyrrolo[2,3-b]pyridin-3-ylmethyl)-thiazol-2-yl]-(1-ethyl-1H-pyrazol-4-ylmethyl)-amine] | < 1000 nM |

| Compound | IC50 |
| --- | --- |
| Fc1ccc(CNc2ncc(Cc3c[nH]c4ncc(Cl)cc34)cn2)c(Cl)c1 [P-0396, (2-Chloro-4-fluoro-benzyl)-[5-(5-chloro-1H-pyrrolo[2,3-b]pyridin-3-ylmethyl)-pyrimidin-2-yl]-amine] | < 1000 nM |
| Fc1cc(C(F)(F)F)ccc1CNc1ncc(Cc2c[nH]c3ncccc23)cn1 [P-0319, (2-Fluoro-4-trifluoromethyl-benzyl)-[5-(1H-pyrrolo[2,3-b]pyridin-3-ylmethyl)-pyrimidin-2-yl]-amine] | < 1000 nM |
| Fc1cccc(F)c1CNc1ccc(Cc2c[nH]c3ncc(Cl)cc23)cn1 [P-0278, [5-(5-Chloro-1H-pyrrolo[2,3-b]pyridin-3-ylmethyl)-pyridin-2-yl]-(2,6-difluoro-benzyl)-amine] | < 1000 nM |
| Clc1ccc(CNc2ncc(Cc3c[nH]c4ncccc34)cn2)cc1 [P-0307, (4-Chloro-benzyl)-[5-(1H-pyrrolo[2,3-b]pyridin-3-ylmethyl)-pyrimidin-2-yl]-amine] | < 1000 nM |
| COc1ccnc2[nH]cc(Cc3ccc(NCc4ccc(C(F)(F)F)cc4)nc3)c12 [P-0011, [5-(4-Methoxy-1H-pyrrolo[2,3-b]pyridin-3-ylmethyl)-pyridin-2-yl]-(4-trifluoromethyl-benzyl)-amine] | < 1000 nM |
| Cc1ccccc1CNc1ccc(Cc2c[nH]c3ncccc23)cn1 [P-0217, (2-Methyl-benzyl)-[5-(1H-pyrrolo[2,3-b]pyridin-3-ylmethyl)-pyridin-2-yl]-amine] | < 1000 nM |
| C[C@@H](Nc1ccc(Cc2c[nH]c3ncccc23)cn1)c1ccccc1 [P-0125, ((R)-1-Phenyl-ethyl)-[5-(1H-pyrrolo[2,3-b]pyridin-3-ylmethyl)-pyridin-2-yl]-amine] | < 1000 nM |
| Fc1ccc(CNc2ncc(Cc3c[nH]c4ncccc34)cn2)c(C(F)(F)F)c1 [P-0320, (4-Fluoro-2-trifluoromethyl-benzyl)-[5-(1H-pyrrolo[2,3-b]pyridin-3-ylmethyl)-pyrimidin-2-yl]-amine] | < 1000 nM |
| Brc1cnccc1CNc1ccc(Cc2c[nH]c3ncccc23)cn1 [P-0214, (3-Bromo-pyridin-4-ylmethyl)-[5-(1H-pyrrolo[2,3-b]pyridin-3-ylmethyl)-pyridin-2-yl]-amine] | < 1000 nM |
| Clc1cnc2[nH]cc(Cc3ccc(NCc4ccccc4Cl)nc3)c2c1 [P-0280, (2-Chloro-benzyl)-[5-(5-chloro-1H-pyrrolo[2,3-b]pyridin-3-ylmethyl)-pyridin-2-yl]-amine] | < 1000 nM |
| Fc1cc(F)cc(CNc2ccc(Cc3c[nH]c4ncccc34)cn2)c1 [P-0356, (3,5-Difluoro-benzyl)-[5-(1H-pyrrolo[2,3-b]pyridin-3-ylmethyl)-pyridin-2-yl]-amine] | < 1000 nM |
| Fc1cccc(F)c1CNc1ccc(Cc2c[nH]c3ncccc23)cn1 [P-0340, (2,6-Difluoro-benzyl)-[5-(1H-pyrrolo[2,3-b]pyridin-3-ylmethyl)-pyridin-2-yl]-amine] | < 1000 nM |
| Cc1cnc2[nH]cc(Cc3ccc(NCc4ccccc4F)nc3)c2c1 [P-0272, (2-Fluoro-benzyl)-[5-(5-methyl-1H-pyrrolo[2,3-b]pyridin-3-ylmethyl)-pyridin-2-yl]-amine] | < 1000 nM |
| Clc1ccc(CNc2ncc(Cc3c[nH]c4ncc(Cl)cc34)cn2)cc1 [P-0260, (4-Chloro-benzyl)-[5-(5-chloro-1H-pyrrolo[2,3-b]pyridin-3-ylmethyl)-pyrimidin-2-yl]-amine] | < 1000 nM |
| COc1cnc2[nH]cc(Cc3ccc(NCc4ccc(C(F)(F)F)nc4)nc3F)c2c1 [P-0187, [6-Fluoro-5-(5-methoxy-1H-pyrrolo[2,3-b]pyridin-3-ylmethyl)-pyridin-2-yl]-(6-trifluoromethyl-pyridin-3-ylmethyl)-amine] | < 1000 nM |
| Cc1nn(C(=O)NCCc2ccccc2F)c(C)c1Cc1c[nH]c2ncccc12 [P-0148, 3,5-Dimethyl-4-(1H-pyrrolo[2,3-b]pyridin-3-ylmethyl)-pyrazole-1-carboxylic acid [2-(2-fluoro-phenyl)-ethyl]-amide] | < 1000 nM |
| Fc1cnc2[nH]cc(Cc3ccc(NCc4ccccc4C(F)(F)F)nc3)c2c1 [P-0325, [5-(5-Fluoro-1H-pyrrolo[2,3-b]pyridin-3-ylmethyl)-pyridin-2-yl]-(2-trifluoromethyl-benzyl)-amine] | < 1000 nM |
| O=C(c1ccc(NCc2ccc(C(F)(F)F)cc2)nc1)c1c[nH]c2ncccc12 [P-0017, (1H-Pyrrolo[2,3-b]pyridin-3-yl)-[6-(4-trifluoromethyl-benzylamino)-pyridin-3-yl]-methanone] | < 1000 nM |
| Fc1cc(Cl)ccc1CNc1ncc(Cc2c[nH]c3ncccc23)cn1 [P-0314, (4-Chloro-2-fluoro-benzyl)-[5-(1H-pyrrolo[2,3-b]pyridin-3-ylmethyl)-pyrimidin-2-yl]-amine] | < 1000 nM |
| Fc1c(Cl)cccc1CNc1ncc(Cc2c[nH]c3ncc(Cl)cc23)cn1 [P-0392, (3-Chloro-2-fluoro-benzyl)-[5-(5-chloro-1H-pyrrolo[2,3-b]pyridin-3-ylmethyl)-pyrimidin-2-yl]-amine] | < 1000 nM |
